± gives the uncertainty stated by the source.
Experiment: xn = mol fraction of the nth substance listed

CC(=O)CC(C)C + CCCCOC(C)=O
298.15 K, 101.33 kPa
Settings	viscosity [mPa·s]
x1 = 0.128	0.66 ± 0.007
x1 = 0.2471	0.643 ± 0.007
x1 = 0.3594	0.628 ± 0.006
x1 = 0.4715	0.612 ± 0.006
x1 = 0.5881	0.595 ± 0.006
x1 = 0.6863	0.583 ± 0.006
x1 = 0.7901	0.57 ± 0.006
x1 = 0.8902	0.556 ± 0.006

O=C1CCCCC1 + CCCCOC(C)=O
viscosity [mPa·s], 101 kPa
Settings	298.15 K	303.15 K	308.15 K	313.15 K
x1 = 0.1162	0.689 ± 0.006	–	–	–
x1 = 0.2283	0.732 ± 0.006	–	–	–
x1 = 0.3365	0.788 ± 0.007	–	–	–
x1 = 0.441	0.871 ± 0.007	–	–	–
x1 = 0.542	0.976 ± 0.008	–	–	–
x1 = 0.6397	1.109 ± 0.009	–	–	–
x1 = 0.7341	1.281 ± 0.01	–	–	–
x1 = 0.8256	1.478 ± 0.011	–	–	–
x1 = 0.9142	1.731 ± 0.013	–	–	–
x2 = 0.0814	1.757 ± 0.023	1.589 ± 0.021	1.445 ± 0.019	1.321 ± 0.017
x2 = 0.165	1.536 ± 0.021	1.393 ± 0.019	1.274 ± 0.017	1.166 ± 0.015
x2 = 0.2509	1.362 ± 0.019	1.235 ± 0.017	1.137 ± 0.015	1.045 ± 0.014
x2 = 0.3438	1.214 ± 0.017	1.101 ± 0.015	1.016 ± 0.014	0.934 ± 0.013
x2 = 0.4391	1.099 ± 0.015	0.999 ± 0.014	0.922 ± 0.013	0.852 ± 0.012
x2 = 0.5412	0.995 ± 0.014	0.904 ± 0.013	0.838 ± 0.012	0.775 ± 0.011
x2 = 0.6451	0.914 ± 0.013	0.83 ± 0.012	0.774 ± 0.011	0.715 ± 0.01
x2 = 0.7589	0.836 ± 0.013	0.763 ± 0.011	0.711 ± 0.011	0.66 ± 0.01
x2 = 0.8707	0.767 ± 0.012	0.7 ± 0.011	0.658 ± 0.01	0.61 ± 0.009

CCOCC + CCCO
101 kPa
Settings	viscosity [mPa·s]
298.15 K, x1 = 0.09896	1.404 ± 0.014
298.15 K, x1 = 0.1949	1.024 ± 0.01
298.15 K, x1 = 0.3032	0.753 ± 0.0078
298.15 K, x1 = 0.4198	0.562 ± 0.0058
298.15 K, x1 = 0.5476	0.427 ± 0.0044
298.15 K, x1 = 0.6864	0.336 ± 0.0035
298.15 K, x1 = 0.8353	0.272 ± 0.0028
303.16 K, x1 = 0.07	1.682 ± 0.2
303.16 K, x1 = 0.15	1.591 ± 0.19
303.16 K, x1 = 0.25	1.417 ± 0.17
303.16 K, x1 = 0.37	1.237 ± 0.15
303.16 K, x1 = 0.47	0.8879 ± 0.12
303.16 K, x1 = 0.59	0.6163 ± 0.085
303.16 K, x1 = 0.73	0.4922 ± 0.071
303.16 K, x1 = 0.78	0.3645 ± 0.057
303.16 K, x1 = 0.92	0.2804 ± 0.047

O=C1CCCCC1 + CCCO
303.15 K, 101 kPa
Settings	viscosity [mPa·s]
x1 = 0.1012	1.452 ± 0.011
x1 = 0.2601	1.283 ± 0.01
x1 = 0.4199	1.243 ± 0.01
x1 = 0.5794	1.3 ± 0.011
x1 = 0.7393	1.392 ± 0.012
x1 = 0.8997	1.576 ± 0.014

CCCCCCO + CCO
Settings	viscosity [mPa·s]
298.15 K, 101.33 kPa, x2 = 0.1094	4.001 ± 0.037
298.15 K, 101.33 kPa, x2 = 0.2099	3.537 ± 0.034
298.15 K, 101.33 kPa, x2 = 0.3973	2.828 ± 0.029
298.15 K, 101.33 kPa, x2 = 0.5015	2.484 ± 0.027
298.15 K, 101.33 kPa, x2 = 0.5903	2.214 ± 0.025
298.15 K, 101.33 kPa, x2 = 0.6925	1.894 ± 0.023
298.15 K, 101.33 kPa, x2 = 0.8012	1.574 ± 0.021
298.15 K, 101.33 kPa, x2 = 0.899	1.305 ± 0.019
303.15 K, 101 kPa, x2 = 0.1433	3.364 ± 0.086
303.15 K, 101 kPa, x2 = 0.2814	2.887 ± 0.074
303.15 K, 101 kPa, x2 = 0.487	2.241 ± 0.058
303.15 K, 101 kPa, x2 = 0.6448	1.807 ± 0.046
303.15 K, 101 kPa, x2 = 0.7691	1.509 ± 0.039
303.15 K, 101 kPa, x2 = 0.8692	1.28 ± 0.033
303.15 K, 101 kPa, x2 = 0.9524	1.093 ± 0.028

CCOCC + CCO
298.15 K, 101 kPa
Settings	viscosity [mPa·s]
x1 = 0.1577	0.741 ± 0.0076
x1 = 0.3593	0.478 ± 0.005
x1 = 0.4569	0.4 ± 0.0042
x1 = 0.5301	0.359 ± 0.0037
x1 = 0.6268	0.315 ± 0.0033
x1 = 0.6925	0.29 ± 0.003
x1 = 0.7978	0.264 ± 0.0028

CCS + CCO
298.15 K, 101 kPa
Settings	viscosity [mPa·s]
x1 = 0.026	1.048 ± 0.008
x1 = 0.072	0.9731 ± 0.0074
x1 = 0.0942	0.9305 ± 0.0071
x1 = 0.1067	0.8559 ± 0.0065
x1 = 0.1258	0.8385 ± 0.0064
x1 = 0.2634	0.6525 ± 0.0051
x1 = 0.2941	0.6119 ± 0.0048
x1 = 0.3753	0.5821 ± 0.0047
x1 = 0.6123	0.4083 ± 0.0035

O=C1CCCCC1 + CCOC(=O)OCC
viscosity [mPa·s], 101 kPa
Settings	x2 = 0.0898	x2 = 0.1505	x2 = 0.2556	x2 = 0.3587	x2 = 0.4619	x2 = 0.5665	x2 = 0.6701	x2 = 0.7601	x2 = 0.8945	x2 = 0.9487
303.15 K	1.626 ± 0.042	1.498 ± 0.039	1.321 ± 0.035	1.156 ± 0.031	1.028 ± 0.027	0.911 ± 0.025	0.825 ± 0.023	0.768 ± 0.021	0.719 ± 0.02	0.708 ± 0.02
308.15 K	1.479 ± 0.038	1.37 ± 0.036	1.202 ± 0.032	1.056 ± 0.028	0.937 ± 0.025	0.837 ± 0.023	0.759 ± 0.021	0.711 ± 0.02	0.669 ± 0.019	0.658 ± 0.018
313.15 K	1.375 ± 0.036	1.274 ± 0.033	1.116 ± 0.029	0.981 ± 0.026	0.873 ± 0.024	0.784 ± 0.021	0.714 ± 0.02	0.668 ± 0.019	0.626 ± 0.018	0.617 ± 0.017

CC(=O)CC(C)C + CCOCCO
298.15 K, 101.33 kPa
Settings	viscosity [mPa·s]
x1 = 0.1481	1.043 ± 0.01
x1 = 0.2727	0.943 ± 0.009
x1 = 0.3972	0.854 ± 0.008
x1 = 0.511	0.782 ± 0.008
x1 = 0.6235	0.718 ± 0.007
x1 = 0.7252	0.664 ± 0.007
x1 = 0.824	0.617 ± 0.006
x1 = 0.8892	0.588 ± 0.006

CCC(C)N (configuration not stated) + CCOCCO
308.15 K, 101 kPa
Settings	viscosity [mPa·s]
x2 = 0.1045	0.5211 ± 0.054
x2 = 0.208	0.6419 ± 0.066
x2 = 0.3105	0.7668 ± 0.079
x2 = 0.412	0.8957 ± 0.092
x2 = 0.5124	1.016 ± 0.1
x2 = 0.6188	1.13 ± 0.12
x2 = 0.7103	1.217 ± 0.12
x2 = 0.8078	1.304 ± 0.13
x2 = 0.9043	1.385 ± 0.14

CCCCCCO + CN1CCCC1=O
viscosity [mPa·s], 100 kPa
Settings	x1 = 0.1042	x1 = 0.2	x1 = 0.302	x1 = 0.3995	x1 = 0.4998	x1 = 0.5996	x1 = 0.6992	x1 = 0.7985	x1 = 0.8981	x1 = 0.9469
293.15 K	1.95 ± 0.017	2.073 ± 0.017	2.222 ± 0.019	2.385 ± 0.02	2.581 ± 0.021	2.824 ± 0.023	3.148 ± 0.026	3.595 ± 0.029	4.278 ± 0.034	4.729 ± 0.038
298.15 K	1.786 ± 0.015	1.894 ± 0.016	2.02 ± 0.017	2.157 ± 0.018	2.321 ± 0.019	2.521 ± 0.021	2.791 ± 0.023	3.158 ± 0.026	3.711 ± 0.03	4.048 ± 0.032
303.15 K	1.645 ± 0.014	1.739 ± 0.015	1.845 ± 0.016	1.961 ± 0.017	2.099 ± 0.018	2.266 ± 0.019	2.49 ± 0.021	2.791 ± 0.023	3.24 ± 0.026	3.53 ± 0.028
308.15 K	1.522 ± 0.013	1.603 ± 0.014	1.693 ± 0.015	1.791 ± 0.015	1.907 ± 0.016	2.046 ± 0.017	2.233 ± 0.019	2.481 ± 0.021	2.844 ± 0.023	3.083 ± 0.025
313.15 K	1.412 ± 0.013	1.483 ± 0.013	1.56 ± 0.014	1.643 ± 0.014	1.741 ± 0.015	1.857 ± 0.016	2.012 ± 0.017	2.217 ± 0.019	2.51 ± 0.021	2.708 ± 0.022
318.15 K	1.315 ± 0.012	1.377 ± 0.012	1.442 ± 0.013	1.513 ± 0.013	1.595 ± 0.014	1.692 ± 0.015	1.822 ± 0.016	1.991 ± 0.017	2.226 ± 0.019	2.387 ± 0.02

CCCCCCO + CO
298.15 K, 101.33 kPa
Settings	viscosity [mPa·s]
x2 = 0.1054	3.881 ± 0.036
x2 = 0.2016	3.351 ± 0.031
x2 = 0.3144	2.778 ± 0.025
x2 = 0.4093	2.348 ± 0.022
x2 = 0.5053	1.968 ± 0.018
x2 = 0.6027	1.615 ± 0.015
x2 = 0.7094	1.278 ± 0.012
x2 = 0.8038	1.001 ± 0.0096
x2 = 0.9022	0.7601 ± 0.0075
